Measured values from BindingDB's records for doi:10.1021/jm100158v (University of California, 2010).

Assay: Inhibition of Escherichia coli K12 ADCS by spectrophotometry

SMILES: Cc1ccc(C(=O)N[C@@H](CCCCNC(=O)c2cccc(OCC(=O)O)c2)C(=O)N[C@@H](Cc2cccc(Cl)c2)C(N)=O)c([N+](=O)[O-])c1O [2-(3-((S)-6-((S)-1-amino-3-(3-chlorophenyl)-1-oxopropan-2-ylamino)-5-(3-hydroxy-4-methyl-2-nitrobenzamido)-6-oxohexylcarbamoyl)phenoxy)acetic acid]
- Ki: 770 µM
